The values that follow come from patent US20250235501A1, “Methods and Compositions for Treating or Preventing Neurological Injury or Neurological Disorders” (University of Connecticut, priority 2024, published 2025).

For one assay, the system named is NMDARs. Put plainly: NMDAR currents in cultured cortical neurons of WT and TRPM2-KO mice (whole cell recording). The format is cell-based, mouse. The note with it: for NMDAR current amplitude in WT neurons: 1 μM compound overnight, 10 μM NMDA, -80 mV, compared with TRPM2-KO neurons. How it is done:
FIGS. 4O and 4P show the effects of stausporine on NMDAR currents recorded from cortical neurons cultured for 14 days. FIG. 4O show representative NMDAR currents elicited at −80 mV by 10 μM NMDA in WT and TRPM2-KO (gM2KO) neurons treated with or without Stausporine at 1 μM for overnight. FIG. 4P show the average current amplitude (ns, p>0.05; **, p<0.01; ANOVA, Bonferroni's test; mean±SEM, n=11, 10, 10, 12 neurons from 2 mice respectively).
FIG. 4S show representative NMDAR currents elicited by NMDA in WT and TRPM2-KO neurons treated with or without endosidin2 at 1 μM for overnight.
FIGS. 5I-5K show the effects of TAT-EE3 on PKC induced changes of NMDAR currents recorded in cortical neurons of WT and TRPM2-KO. Neurons were incubated with 10 μM TAT-SC or TAT-EE3 for overnight before current recording. FIG. 5I show representative NMDAR currents elicited by 10 μM NMDA at −80 mV before and after PMA (1 μM) perfusion for 20 s. TAT-SC or TAT-EE3 10 μM was included in the pipette solution for current recording.
FIGS. 6A and 6B show the effects of TAT-EE3 on NMDAR currents in WT and gM2KO cortical neurons cultured for 14 days. […] TAT-SC or TAT-EE3 10 μM was included in the pipette solution during current recording.
Mice pups at P0 were euthanized based on animal protocol. Whole brain was dissected out immediately and immersed in ice-cold Hank's Balanced Salt Solution (HBSS). Meninges were removed thoroughly, and tissue of different brain areas was taken based on purposes. Brain tissue was cut into small pieces and digested with 0.25% trypsin (Thermal Fisher Scientific, 15090-046) in HBSS at 37° C. for 20 min. Digestion solution was quickly removed, and tissue pellets are washed with Neurobasal® Medium (Thermal Fisher Scientific, 21103-049) for 3 times. Cells were resuspended with appropriate amount of Neurobasal® Medium supplemented with 2% B27® supplement (Thermal Fisher Scientific, 17504-044), 3% horse serum (Thermal Fisher Scientific, 16050114), 0.25% L-glutamine (Thermal Fisher Scientific, 25030-081) and 1% penicillin/streptomycin (Thermal Fisher Scientific, 15140-122). Isolated cells were counted and plated on coverslips pre-coated with poly-L-lysine (Sigma-Aldrich, P4707) at a density about 500×10^3 cells/cm2 for OGD and H2O2 treatment, and 100×10^3 cells/cm2 for current recording. Cytosine arabinoside (Sigma-Aldrich, C1768) was added to maintain a concentration at 1 μM to inhibit the proliferation of non-neuronal cells. 24 h after plating, culture medium was changed to Neurobasal® Medium supplemented with 2% B27® supplement, 0.25% L-glutamine and 1% penicillin/streptomycin. The concentration of Cytosine arabinoside (araC) was increased to 2 μM. Medium was changed every 3 days. OGD and H2O2 treatment was conducted at 7th day of culture, and current recording was conducted at 7th, 10th and 14th day of culture.
Whole cell currents were recorded using an Axopatch 200B amplifier. Data were digitized at 10 or 20 kHz and digitally filtered offline at 1 kHz. Patch electrodes were pulled from borosilicate glass and fire-polished to a resistance of ˜3 MΩ when filled with internal solutions. Series resistance (Rs) was compensated up to 90% to reduce series resistance errors to <5 mV. Cells in which Rs was >10 MΩ were discarded (Du, J., Xie, J., and Yue, L. (2009). Modulation of TRPM2 by acidic pH and the underlying mechanisms for pH sensitivity. J Gen Physiol 134, 471-88).
For heterologous expression, transfected HEK-293 cells were identified by GFP fluorescence. TRPM2 current recording in transfected HEK-293T cells was performed as we previously reported (Du, J., Xie, J., and Yue, L. (2009). Intracellular calcium activates TRPM2 and its alternative spliced isoforms. Proceedings of the National Academy of Sciences 107, 7239-44; Du, J., Xie, J., and Yue, L. (2009). Modulation of TRPM2 by acidic pH and the underlying mechanisms for pH sensitivity. J Gen Physiol 134, 471-88). […]

In assay [1] the test system is NMDARs (GluN1a, GluN2a, GluN2b). Put plainly: Surface expression of NMDARs in HEK293T cells co-transfected with NMDARs and TRPM2 (WB). In kind it is cell-based, human. The conditions noted are these: 1 μM compound overnight. The protocol:
FIGS. 4K-4N show the surface expression of NMDARs in HEK-293T cells co-transfected with TRPM2 or EGFP with the treatment of PKC activator PMA (FIG. 4K) and inhibitor Stausporine (FIG. 4L). Membrane (Mem) and cytocol (Cyto) NMDARs were analyzed and averaged from 3 independent experiments with 1 μM PMA treatment (FIG. 4N) or 1 μM Stausporine treatment (FIG. 4L) for overnight. Pan-cadherin and β-tubulin were loading controls for membrane and cytosol protein, respectively (*, p<0.05, **, p<0.01, ***, p<0.001, unpaired t-test, mean±SEM, n=3/group).
FIGS. 5C-5F effects of TAT-EE3 on surface expression of NMDARs. HEK293T cells co-transfected with NMDARs with TRPM2 (+M2) or EGFP vector (Con) were treated with 10 μM TAT-SC (FIG. 5C) or TAT-EE3 (FIG. 5D) overnight. Membrane (Mem) and cytosol (Cyto) proteins of NMDARs in TAT-SC (FIG. 5E) and TAT-EE3 (FIG. 5F) treated groups were assessed by WBs and analyzed in reference to Pan-cadherin or β-tubulin (**, p<0.01, ***, p<0.001, unpaired t-test, mean±SEM). All the results were replicated in at least 3 independent experiments.
Pan-cadherin and β-tubulin were used as loading control for membrane and cytosolic protein extraction.
were ordered from GenScript Biotech, and dissolved in PBS to make a stock concentration at 10 mM. HEK-293T cells or isolated neurons were treated with TAT-SC or TAT-EE3 at a concentration of 10 μM for at least 8 h prior to use. Mice were injected with TAT-SC or TAT-EE3 intraperitoneally (ip) at a dose of 100 nmol/kg.
HEK293T cells were cultured in Dulbecco's Modified Eagle's medium (DMEM) (Thermal Fisher Scientific, 12100-038) supplemented with 10% BGS (HyClone, SH30541.03) and 0.5% penicillin/streptomycin (Thermal Fisher Scientific, 15140-122) at 37° C. and 5% CO2. 8 h prior to transfection, culture medium was replaced with DMEM supplemented only with 2.5% BGS. Cells were transfected when at a confluence about 80-90% using Lipofectamine® 3000 Transfection Kit (Thermal Fisher Scientific, 2232162) based on instruction.
NP-40/Triton lysis buffer ([…], 1% Triton™ X-100, 150 mM NaCl, 1 mM EDTA, 50 mM Tris, pH=8.0) containing proteinase inhibitors and phosphatase inhibitors was used to lyse both cultured cells and frozen brain tissue. Surface protein was extracted using Pierce® Cell Surface Protein Isolation Kit (Thermal Fisher Scientific, 89881) in transfected HEK-293T cells, and using ProteoExtract™ Native Membrane Protein Extraction Kit (Calbiochem, 444810) in brain tissue based on instructions. […] Protein concentration was measured using Pierce™ Rapid Gold BCA Protein Assay Kit.
30-50 μg of total protein was loaded and separated proteins were transferred to Nitrocellulose membranes. […] Band intensity was quantified using ImageJ software and normalized with appropriate loading controls.

SMILES strings stand for the structures.

As for `CN[C@@H]1C[C@H]2O[C@@](C)([C@@H]1OC)n1c3ccccc3c3c4c(c5c6ccccc6n2c5c31)C(=O)NC4` [stausporine, reference compound], the “NMDAR current amplitude in WT neurons” value in the assay on NMDARs is listed as “normalized NMDAR current amplitude in the WT neuron to the similar amplitude level of NMDAR current in TRPM2-KO neurons”. For the same compound, the “surface expression level of NMDARs in cells transfected with NMDARs and TRPM2” value (“surface expression level of NMDARs” below) in assay [1] was “abolished the enhanced surface expression level”.
On to `COc1cc(/C=N/NC(=O)c2cccc(F)c2)cc(I)c1O` [Endosidin 2, reference compound], for which the “NMDAR current amplitude in WT neurons” value with NMDARs is on record as “abolished the increased current amplitude”. In assay [1], the “surface expression level of NMDARs” value is recorded as “prevented the increase”.
For the compound `CCCCCCCCCCCCCC(=O)O[C@@H]1[C@@H](C)[C@@]2(O)[C@@H](C=C(CO)C[C@]3(O)C(=O)C(C)=C[C@@H]23)[C@@H]2C(C)(C)[C@]12OC(C)=O` [PMA, Phorbol-12-myristate-13-acetate, reference compound], the “increase of NMDA-induced current by PMA” value in the assay with NMDARs (WT neurons, PMA 1 μM perfusion for 20 s) was “about 1.5 fold”. Moreover, in the assay on NMDARs (WT neurons, PMA 1 μM perfusion for 20 s, before PMA 1542.1±117.1 pA), the “NMDA-induced current after PMA perfusion” value came out at 3642.1±180.8 pA. Moreover, the “surface expression level of NMDARs” value in assay [1] is given as “much higher level of surface NMDARs”.
